US10543254B2, “Composition containing neuropeptide Y for inhibiting side effects of anticancer agents” (KYUNGPOOK NATIONAL UNIVERSITY INDUSTRY-ACADEMIC COOPERATION …, priority 2014, dated 2020)

Tests used:
[1] = tested on: cisplatin-induced neuropathy; test: Hot-plate (heated-pad) test of sensory neuropathy after seven cycles of cisplatin with or without NPY; type: in vivo, mice
Procedure: (§1) Cisplatin (Enzo; 10 mg per kg body weight once per week) was used to induce SNS injury. Mice received i.p. injections of cisplatin for 7 weeks as described. The mice were euthanized after 2 weeks after the last injection of cisplatin (for full bone marrow recovery).
(§2) To assess neuroprotection from cisplatin, mice were injected i.p. with NPY (Bachem, H-6375) daily during the 7-week cisplatin treatment period.
For measuring effects of different treatments on sensory responses, a hot-plate test was performed.
A hot plate (Leica) was maintained at 50° C. and each mouse was positioned on the end of the heated surface, first nociception, that is, a time until jumping or paw licking was measured. A cut-off time was set as 60 seconds. For the measurement, the heated surface was cleaned with a detergent and ethanol and a temperature was maintained at 50° C.
Next, control, Lyz2-cre; Y1^fl/fl, or Col1a1-cre; Y1^fl/fl mice were treated with seven cycles of cisplatin for the induction of neuropathy. In some animals, NPY was administered during cisplatin chemotherapy. […]
FIG. 2B illustrates a quantitative analysis result of sympathetic neuropathy (after 2 weeks after the last cisplatin injection) in a control group, Lyz2-cre; Y1^fl/fl or Col1a1-cre; Y1^fl/fl mice treated with cisplatin alone or cisplatin and NPY (n=6-10 mice per group, i.p). […]

[2] = tested on: cisplatin-induced bone marrow injury; test: Complete blood count 4 weeks after bone marrow transplantation; type: in vivo, mice; conditions: for HCT (hematocrit) / Hgb (hemoglobin) / MCH (mean corpuscular hemoglobin) / MCHC (mean corpuscular hemoglobin concentration) / MCV (mean cell volume) / MPV (mean platelet volume) / PLT (platelets) / RBC (red blood cell) / RDW-CV (red cell volume distribution width-coefficient of variation) / WBC (white blood cell): complete blood count 4 weeks after transplantation, groups PBS or cisplatin / PBS or NPY
Excerpt: (§3) The mice were lethally irradiated (10 Gy, two split doses) and injected with 1×10^6 BM from CD45.1^+ (BoyJ) mice. After 4 weeks, the mice were sacrificed, and bone marrow and blood were obtained for analysis.
(§4) Next, to evaluate further whether NPY treatment prevents cisplatin-induced mouse death and injury of BM, bone marrow mononuclear cells (BMNCs) were transplanted into cisplatin-treated mice with or without NPY treatment after lethal irradiation. FIG. 2H illustrates an experimental design for verifying whether NPY protects a Th^+ fiber from cisplatin-induced bone marrow injury and whether to accelerate posttransplant bone marrow recovery.
Table 1 is a diagram illustrating an increase in blood cell recovery in NPY-treated mice after cisplatin treatment. A complete blood count was performed by targeting PBS or cisplatin-treated mice after 4 weeks after transplantation and after NPY treatment.

[3] = tested on: cisplatin-induced bone marrow injury; test: Bone marrow transplantation after lethal irradiation in cisplatin-treated mice with or without NPY: survival and bone marrow recovery; type: in vivo
Procedure: as §1, §2, §3, §4
FIG. 2I illustrates a survival result of mice of each group (n=10-15 mice per group).
FIG. 2J is a diagram illustrating the number of BMNCs (left side), a percentage of LSK cells (middle), and LT-HSCs (right side) in BM of WT mice treated with PBS, cisplatin or NPY, which are evaluated after 4 weeks after transplanting bone marrow (n=5-6 mice per group).
FIG. 2K illustrates a percentage of nestin-positive and CD31^+ endothelial cells in the femur of each group.

[4] = tested on: cisplatin-induced sympathetic nervous system (SNS) injury; test: Quantification of Th+ fibers and nestin-positive and CD31+ endothelial cells in bone marrow after cisplatin with or without NPY; type: in vivo, mice
Procedure: as §1, §2
Next, control, Lyz2-cre; Y1^fl/fl, or Col1a1-cre; Y1^fl/fl mice were treated with seven cycles of cisplatin for the induction of neuropathy. In some animals, NPY was administered during cisplatin chemotherapy. FIG. 2A is an experimental design for determining an effect of the Y1 receptor in the macrophages or osteoblasts in cisplatin-induced neuropathy, after NPY treatment.
Further, FIG. 2E is a diagram illustrating a quantitative analysis of a Th^+ fiber in BM of each group (n=5-6 mice per group).
FIG. 2F is a diagram illustrating the number (n=5-6 mice per group) of nestin-positive and CD31^+ endothelial cells per femoral region of each group.

[5] = NPY i.p. daily during 7-week cisplatin treatment, cisplatin-treated control or Col1a1-cre, Y1fl/fl mice

| Compound | sensory neuropathy (hot-plate latency) ([1]; 2 weeks after the last injection, cisplatin 10 mg per kg i.p. once per week for 7 weeks) | HCT (hematocrit) [2] [%] | Hgb (hemoglobin) [2] [g/dL] | MCH (mean corpuscular hemoglobin) [2] [pg] | MCHC (mean corpuscular hemoglobin concentration) [2] [g/dL] | MCV (mean cell volume) [2] [fL] | MPV (mean platelet volume) [2] [fL] | PLT (platelets) [2] [m/mm^3] | RBC (red blood cell) [2] [m/mm^3] | RDW-CV (red cell volume distribution width-coefficient of variation) [2] [%] | WBC (white blood cell) [2] [m/mm^3] | sensory neuropathy (hot-plate latency) [1, 5] | numbers of nestin-positive and CD31+ endothelial cells in the femur ([3]; cisplatin-treated mice after transplantation) | bone marrow function after transplantation (BMNCs, LSK cells, LT-HSCs) ([3]; cisplatin-treated mice, 4 weeks after transplanting bone marrow) | mouse survival ([3]; cisplatin-treated mice, lethal irradiation and BMNC transplantation) | blood cell recovery ([2]; NPY-treated mice after cisplatin treatment, 4 weeks after transplantation) | number of nestin-positive and CD31+ endothelial cells [4, 5] | reduced density of Th+ fibers in BM [4, 5] | protection of Th+ fibers and perivascular niche cells ([4]; cisplatin-treated Lyz2-cre, Y1fl/fl mice (no Y1 receptor in macrophages)) |
| --- | --- | --- | --- | --- | --- | --- | --- | --- | --- | --- | --- | --- | --- | --- | --- | --- | --- | --- | --- |
| N.N.[Cl][Pt][Cl] [Cisplatin, cisplatin, reference compound] | had sensory neuropathy | 53.5 ± 6.1 | 12.8 ± 0.8 | 17.1 ± 0.8 | 27.0 ± 4.2 | 66.1 ± 5.2 | 11.3 ± 2.3 | 165.7 ± 42.4 | 6.1 ± 0.8 | 19.4 ± 0.3 | 2.2 ± 0.4 |  |  |  |  |  |  |  |  |
| neuropeptide Y [NPY] |  | 49.5 ± 9.3 | 14.4 ± 0.9 | 17.35 ± 1.4 | 33.2 ± 7.6 | 58.2 ± 8.8 | 11.4 ± 2.8 | 219.3 ± 65.8 | 8.4 ± 0.4 | 19.4 ± 0.8 | 5.3 ± 0.4 | improved | restored | restored | enhanced | increase | improved | improved | did not show NPY-mediated protection |
